Patent US20260199377A1, “CANNABINOIDS FOR TREATING ESSENTIAL TREMOR IN PATIENTS” (Jazz Pharmaceuticals Research UK Limited, priority 2022, published 2026)
Structures can show the parent of a compound that is named as a salt.

Assays:
[1] = system: Harmaline-Induced Essential Tremor in Rats; experiment: Harmaline-induced essential tremor in rats (observational score, Tremor Monitor waveforms); type: in vivo, rats (male; Sprague Dawley); conditions: for tremor, as indexed by OS, TI, and MPP: overall conclusion, propranolol 20 mg/kg
Experimental: Subjects: Naïve rats (114; male; Sprague Dawley; aged 6-9 weeks; weight 190-369 g) were obtained from Charles River UK and acclimated to the testing room in home cages (standard caging; housed in groups of 4) up to 7 days following arrival at the test facility, with free access to food (Certified Rodent CR 14% Protein Rodent Diet, LabDiet® 5CR4) and water on a 12 h/12 h light/dark cycle from arrival (lights on at 7:00 AM). All subjects were weighed at the beginning of the study and assigned to treatment groups.
Tremor Monitor™ (“TM”): A TM from San Diego Instruments was obtained to measure movement waveforms (i.e., amplitude (“A”) (dBV) as a function of frequency (“f”) (Hz)) (threshold 10 dBV).
NBX/Harmaline Experimental Group (number of subjects (“n”)=36 (12 at each dose of NBX)): Subjects were habituated to the TM for 2×5 minutes (with a 20 minute gap between the two 5 minute periods). The next day, 5.2, 10.4, or 20.8 mg/kg (total THC and CBD) NBX was administered p.o. (oral gavage) in sesame oil to the subjects at 2 mL/kg. 100 minutes after the NBX was administered, 10 mg/kg of harmaline was administered i.p. in water to the subjects at 5 mL/kg. 20, 40, and 60 minutes after the harmaline was administered to the subjects, the subjects were observationally scored in their home cages on a scale from 0 to 4 (wherein scores (“observational scores” (“OS”)) of 0, 1, 2, 3, and 4 correspond, as summarized in TABLE A below, to “No tremor”, “Occasional tremor affecting only head and neck”, “Intermittent tremor affecting whole body”, “Persistent tremor affecting whole body and tail”, and “Severe tremor rendering subject unable to stand”, respectively) and, immediately thereafter, movement waveforms of the subjects were measured with the TM for 5 minutes each.
Thereafter, the administration of the harmaline and NBX (“acute treatment”) was continued once per day until the harmaline and NBX had been administered for 10 days (“sub-chronic treatment”). 20, 40, and 60 minutes after the final administration of the NBX and harmaline, the subjects were again observationally scored on the scale described (and summarized in TABLE A) above and movement waveforms of the subjects were again measured with the TM for 5 minutes each.
Propranolol/Harmaline Comparison Group (n=12): The Experimental Group protocol was repeated, except for administering, instead of NBX, 20 mg/kg of propranolol i.p. 30 minutes before the harmaline was administered (as the maximum effect of propranolol can be observed approximately 30 minutes after administration).
Vehicle/Harmaline Control Group (n=12): The Experimental Group protocol was repeated, except for administering, instead of NBX, sesame oil (vehicle) at 2 mL/kg.
Calculations and Statistical Analysis: For each movement waveform measured, the following values were calculated: average amplitude (“A”) (average power) for the range of frequency (“f”) from
Tremor Index (“TI”=AP2−AP1); and Motion Power Percentage (“MPP” (%)=AP2/(AP1+AP2)×100). Further, for each subject, the following values were calculated: total number of tremor events (10 dBV threshold; sum of 20-, 40-, and 60-minute data); total average length of one tremor event (average of 20-, 40-, and 60-minute data); and total cumulative time of tremor events (sum of 20-, 40-, and 60-minute data), wherein “total” refers to combination of the 20-minute data, the 40-minute data, and the 60-minute data (e.g., “total cumulative time of tremor events” means total of the cumulative time of tremor events for the 20-minute data, the cumulative time of tremor events for the 40-minute data, and the cumulative time of tremor events for the 60-minute data). For the 20-, 40-, and 60-minute data independently, OS, MPP, and TI were analyzed by Kruskal-Wallis followed by Dunn's multiple comparison test. […]

rats = experiment: Propranolol/Vehicle and NBX/Vehicle control groups (saline instead of harmaline), tremor measures; type: in vivo, rats (male; Sprague Dawley); conditions: vs Vehicle/Vehicle group; for Tremor Index (TI) / observational score (OS): propranolol 20 mg/kg i.p. or NBX 5.2, 10.4, 20.8 mg/kg p.o.; for Motion Power Percentage (MPP): except for NBX at 20.8 mg/kg total THC and CBD at the 20 minute timepoint
Experimental: Propranolol/Vehicle Control Group (n=12): The Propranolol/Harmaline Comparison Group protocol was repeated, except for administering, instead of harmaline, saline (vehicle) at 5 mL/kg.
Vehicle/Vehicle Control Group (n=6): The Experimental Group protocol was repeated, except for administering, instead of NBX, sesame oil (vehicle) at 2 mL/kg, and, instead of harmaline, saline (vehicle) at 5 mL/kg.
NBX/Vehicle Control Group (n=36 (12 at each dose)): The Experimental Group protocol was repeated, except for administering, instead of harmaline, saline (vehicle) at 5 mL/kg.
Tremor Index (“TI”=AP2−AP1); and Motion Power Percentage (“MPP” (%)=AP2/(AP1+AP2)×100). Further, for each subject, the following values were calculated: total number of tremor events (10 dBV threshold; sum of 20-, 40-, and 60-minute data); total average length of one tremor event (average of 20-, 40-, and 60-minute data); and total cumulative time of tremor events (sum of 20-, 40-, and 60-minute data), wherein “total” refers to combination of the 20-minute data, the 40-minute data, and the 60-minute data (e.g., “total cumulative time of tremor events” means total of the cumulative time of tremor events for the 20-minute data, the cumulative time of tremor events for the 40-minute data, and the cumulative time of tremor events for the 60-minute data). For the 20-, 40-, and 60-minute data independently, OS, MPP, and TI were analyzed by Kruskal-Wallis followed by Dunn's multiple comparison test. For the 20-, 40-, and 60-minuted data combined, the total number of tremor events, total average length (duration) of one tremor event, and total cumulative time spent in tremor were analyzed by Kruskal-Wallis followed by a Tukey's multiple comparison test. Results were considered significant for p<0.05. Outlier removal was not applied due to non-responders in the harmaline group which could not be identified in the treatment groups.

[2] = harmaline 10 mg/kg i.p., acute treatment, all timepoints, Vehicle/Harmaline vs Vehicle/Vehicle group
[3] = harmaline 10 mg/kg i.p., acute treatment, sum of 20-, 40-, 60-minute data, Vehicle/Harmaline vs Vehicle/Vehicle group
[4] = harmaline 10 mg/kg i.p., sub-chronic treatment, all timepoints, Vehicle/Harmaline vs Vehicle/Vehicle group
[5] = harmaline 10 mg/kg i.p., sub-chronic treatment, sum of 20-, 40-, 60-minute data, Vehicle/Harmaline vs Vehicle/Vehicle group
[6] = acute treatment, propranolol 20 mg/kg i.p., harmaline 10 mg/kg i.p., all timepoints (20, 40, 60 min), vs Vehicle/Harmaline group
[7] = sub-chronic treatment (10 days), propranolol 20 mg/kg i.p., harmaline 10 mg/kg i.p., all timepoints, vs Vehicle/Harmaline group
[8] = sub-chronic treatment, propranolol 20 mg/kg i.p., harmaline 10 mg/kg i.p., vs Vehicle/Harmaline group

Q: With `COc1ccc2c3c([nH]c2c1)C(C)=NCC3` [harmaline, Harmaline] as the compound, how does the “observational score (OS)” value ([1]; harmaline 10 mg/kg i.p., acute treatment, 20, 40 and 60 min post-dose, Vehicle/Harmaline vs Vehicle/Vehicle group) read?
A: Its value is “significantly increased”.

Q: What about the “Motion Power Percentage (MPP)” value [1, 2] of the same compound?
A: The value was “significantly increased”.

Q: And the “Tremor Index (TI)” value [1, 2]?
A: The value was “significantly increased”.

Q: And the “total average length of one tremor event” value ([1]; harmaline 10 mg/kg i.p., acute treatment, average of 20-, 40-, 60-minute data, Vehicle/Harmaline vs Vehicle/Vehicle group)?
A: Its value is “significantly increased”.

Q: And the “total cumulative time of tremor events” value [1, 3]?
A: The value was “significantly increased”.

Q: And the “total number of tremor events” value [1, 3]?
A: The value was “significantly increased”.

Q: What about the “observational score (OS)” value ([1]; harmaline 10 mg/kg i.p., sub-chronic treatment, 20, 40 and 60 min post-dose, Vehicle/Harmaline vs Vehicle/Vehicle group) of the same compound?
A: Its value is “significantly increased”.

Q: What about the “Motion Power Percentage (MPP)” value [1, 4] of the same compound?
A: The value was “significantly increased”.

Q: What about the “Tremor Index (TI)” value [1, 4] of the same compound?
A: Its value is “significantly increased”.

Q: What about the “total average length of one tremor event” value ([1]; harmaline 10 mg/kg i.p., sub-chronic treatment, average of 20-, 40-, 60-minute data, Vehicle/Harmaline vs Vehicle/Vehicle group) of the same compound?
A: The value was “significantly increased”.

Q: And the “total cumulative time of tremor events” value [1, 5]?
A: The value was “significantly increased”.

Q: And the “total number of tremor events” value [1, 5]?
A: The value was “significantly increased”.

Q: What does the source list for `CC(C)NCC(O)COc1cccc2ccccc12` (stereo not drawn) [propranolol, Propranolol hydrochloride]?
A: observational score (OS) ([1]; acute treatment, propranolol 20 mg/kg i.p. 30 min before harmaline 10 mg/kg i.p., 20, 40 and 60 min post-dose, vs Vehicle/Harmaline group): significantly decreased; Motion Power Percentage (MPP) [1, 6]: significantly decreased; Tremor Index (TI) [1, 6]: significantly decreased; total number of tremor events ([1]; acute treatment, propranolol 20 mg/kg i.p., harmaline 10 mg/kg i.p., vs Vehicle/Harmaline group, the only one of the three event measures significantly reduced): significantly reduced; tremor, as indexed by OS, TI, and MPP ([1]; acutely): significantly reduced; tremor, as indexed by OS, TI, and MPP ([1]; sub-chronically): significantly reduced; Motion Power Percentage (MPP) [1, 7]: significantly decreased; Tremor Index (TI) [1, 7]: significantly decreased; observational score (OS) ([1]; sub-chronic treatment (once daily, 10 days), propranolol 20 mg/kg i.p., harmaline 10 mg/kg i.p., 20, 40 and 60 min, vs Vehicle/Harmaline group): significantly decreased; total average length of one tremor event [1, 8]: significantly reduced; total cumulative time of tremor events [1, 8]: significantly reduced; total number of tremor events [1, 8]: significantly reduced; Tremor Index (TI) (rats; acute treatment): no significant effect; observational score (OS) (rats; acute treatment): no significant effect; Motion Power Percentage (MPP) (rats; acute treatment): no significant effect; Tremor Index (TI) (rats; sub-chronic treatment): no significant effect; observational score (OS) (rats; sub-chronic treatment): no significant effect; Motion Power Percentage (MPP) (rats; sub-chronic treatment): no significant effect
